Test results: US20260007613A1, “LONG-ACTING LOW-TOXICITY NOVEL CATIONIC LIPID COMPOUNDS AND COMPOSITION THEREOF” (BEIJING YOUCAREKECHUANG PHARMACEUTICAL TECHNOLOGY CO., LTD., priority 2023, published 2026)
“And” between values parts separate entries of the source, which are not always exact repeats. Identical values can stand only once.

What was measured:
[1] = Particle size and polydispersity index (PDI) of lipid nanoparticles by dynamic light scattering; format: physicochemical; conditions: LNP formulation prepared from the cationic lipid, 25° C.
Protocol: The particle size and polydispersity index (PDI) were determined by dynamic light scattering using Malvern laser particle size analyzer.
10 μL of the liposome solution was weighed, diluted to 1 mL with RNase-free deionized water, and added to the sample pool. Each sample was measured in triplicate. The measurement conditions were: […] scattering angle, and 25° C.

[2] = tested on: 293T cells; assay: Fluorescent detection of Fluc-mRNA (cell transfection efficiency of LNP formulations); format: cell-based
In short: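 Transfection read-out: IVIS imaging after […], 24 h after adding LNPs (lipid molar ratio 49:10:39.5:1.5 cationic/neutral/structured/polymer-lipid; […] Fluc-mRNA). Adherent 293T cells were seeded overnight at 10,000 per well beforehand.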

[3] = tested on: 293T cells; assay: Cell survival rate determination (CCK-8); format: cell-based
In short: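 Readout was CCK-8 absorbance (450 nm, 1 h) taken after a 24 h exposure of overnight-adhered 293T cells (10,000 per well, 96-well) to Lipofectamine 3000 or to LNPs carrying Fluc-mRNA, lipid molar ratio 49:10:39.5:1.5 cationic/neutral/structured/polymer-conjugated.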

[4] = tested on: female BALB/C mice; assay: Live imaging in mice: protein expression of Fluc-mRNA delivered by LNP formulations; format: in vivo; conditions: for average radiation intensity, times that of ALC-0315: comparator ALC-0315; for average radiation intensity, times that of HHMA: comparator HHMA; for average radiation intensity, times that of SM-102: comparator SM-102; for expression of mRNA in mice, times that of YK-302: comparator YK-302; for expression amount, times that of YK-309: comparator YK-309; for expression amount, times that of YK-313: comparator YK-313; for expression amount, times that of YK-321: comparator YK-321; for average radiation intensity, times that of compound 21: comparator compound 21; for average radiation intensity, times that of compound 23: comparator compound 23
In short: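 Female BALB/C mice (4-6 weeks, 17-19 g) received LNP-formulated Fluc-mRNA […] intramuscularly. At 6 h, 24 h, 48 h and 7 d, luciferase substrate given intraperitoneally, and after 5 min average radiance measured by IVIS whole-body imaging.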

Structure (SMILES): CCCCCCCCC(CCCCCCCC)COC(=O)CCCCCN(CCCCCC(=O)OCC(CCCCCCCC)CCCCCCCC)C[C@H](O)CN(CC)CCO [YK-312, (S)-bis(2-octyldecyl)-6,6′-((2-hydroxy-3-((2-hydroxyethyl)(ethyl)amino)propyl)azanediyl)dihexanoate]
- PDI (%) [1]: 33.4%
- Particle size (nm) [1]: 184 nm
- Relative light unit (RLU) ([2]; LNP formulation of Fluc-mRNA, 96-well plate, 24 hours): 20148450 RLU
- Multiples (YK-305) ([2]; RLU of YK-305 / RLU of the lipid of the line): 1.36
- Multiples (YK-310) ([2]; RLU of YK-310 / RLU of the lipid of the line): 1.28
- Multiples (YK-312) ([2]; RLU of YK-312 / RLU of the lipid of the line): 1.00
- Multiples (YK-318) ([2]; RLU of YK-318 / RLU of the lipid of the line, Tables 5, 7, 11): 0.56
- Multiples (YK-319) ([2]; RLU of YK-319 / RLU of the lipid of the line, Tables 5, 7, 11): 1.21
- Ratio relative to SM-102 ([2]; RLU of the lipid / RLU of SM-102, times that of SM-102): 12.56
- cell transfection efficiency, times that of ALC-0315 ([2]; comparator ALC-0315): 9.91 times
- cell transfection efficiency, times that of HHMA ([2]; comparator HHMA): 10.04 times
- cell transfection efficiency, times that of Lipofectamine 3000 ([2]; comparator Lipofectamine 3000): 16.99 times
- cell transfection efficiency, times that of YK-009 ([2]; comparator YK-009): 3.94 times
- cell transfection efficiency, times that of YK-301 ([2]; comparator YK-301): 23.92 times
- cell transfection efficiency, times that of YK-302 ([2]; comparator YK-302): 725.34 times
- cell transfection efficiency, times that of YK-303 ([2]; comparator YK-303): 32.17 times
- cell transfection efficiency, times that of YK-304 ([2]; comparator YK-304): ~900 times and 974.01 times
- cell transfection efficiency, times that of YK-306 ([2]; comparator YK-306): 9.17 times
- cell transfection efficiency, times that of YK-307 ([2]; comparator YK-307): 4.42 times
- cell transfection efficiency, times that of YK-308 ([2]; comparator YK-308): 4.00 times
- cell transfection efficiency, times that of YK-309 ([2]; comparator YK-309): ~160 times and 160.71 times
- cell transfection efficiency, times that of YK-311 ([2]; comparator YK-311): 10.26 times
- cell transfection efficiency, times that of YK-313 ([2]; comparator YK-313): 23.25 times
- cell transfection efficiency, times that of YK-314 ([2]; comparator YK-314): 36.81 times
- cell transfection efficiency, times that of YK-315 ([2]; comparator YK-315): 12.69 times
- cell transfection efficiency, times that of YK-316 ([2]; comparator YK-316): 4.19 times
- cell transfection efficiency, times that of YK-317 ([2]; comparator YK-317): 5.59 times
- cell transfection efficiency, times that of YK-320 ([2]; comparator YK-320): 7.45 times
- cell transfection efficiency, times that of YK-321 ([2]; comparator YK-321): 14.36 times
- cell transfection efficiency, times that of compound 21 ([2]; comparator compound 21): 14.07 times
- cell transfection efficiency, times that of compound 23 ([2]; comparator compound 23): 14.86 times
- Cell survival rate (%) ([3]; LNP formulation of Fluc-mRNA, 24 hours, CCK-8): 76.96%
- cell survival rate higher than ALC-0315 ([3]; difference of survival rates, comparator ALC-0315): 25.93%
- cell survival rate higher than HHMA ([3]; difference of survival rates, comparator HHMA): 10.49%
- cell survival rate higher than Lipofectamine 3000 ([3]; difference of survival rates, comparator Lipofectamine 3000): 51.95%
- cell survival rate higher than SM-102 ([3]; difference of survival rates, comparator SM-102): 7.51%
- cell survival rate higher than YK-301 ([3]; difference of survival rates, comparator YK-301): 24.00%
- cell survival rate higher than YK-302 ([3]; difference of survival rates, comparator YK-302): 60.53%
- cell survival rate higher than YK-303 ([3]; difference of survival rates, comparator YK-303): 13.64%
- cell survival rate higher than YK-304 ([3]; difference of survival rates, comparator YK-304): 42.80%
- cell survival rate higher than YK-306 ([3]; difference of survival rates, comparator YK-306): 34.77%
- cell survival rate higher than YK-307 ([3]; difference of survival rates, comparator YK-307): 15.82%
- cell survival rate higher than YK-308 ([3]; difference of survival rates, comparator YK-308): 5.97%
- cell survival rate higher than YK-309 ([3]; difference of survival rates, comparator YK-309): 45.35%
- cell survival rate higher than YK-311 ([3]; difference of survival rates, comparator YK-311): 6.90%
- cell survival rate higher than YK-313 ([3]; difference of survival rates, comparator YK-313): 8.03%
- cell survival rate higher than YK-314 ([3]; difference of survival rates, comparator YK-314): 9.08%
- cell survival rate higher than YK-315 ([3]; difference of survival rates, comparator YK-315): 5.68%
- cell survival rate higher than YK-316 ([3]; difference of survival rates, comparator YK-316): 6.43%
- cell survival rate higher than YK-317 ([3]; difference of survival rates, comparator YK-317): 17.78%
- cell survival rate higher than YK-320 ([3]; difference of survival rates, comparator YK-320): 5.89%
- cell survival rate higher than YK-321 ([3]; difference of survival rates, comparator YK-321): 4.62%
- cell survival rate higher than compound 21 ([3]; difference of survival rates, comparator compound 21): 6.75%
- cell survival rate higher than compound 23 ([3]; difference of survival rates, comparator compound 23): 5.46%
- average radiation intensity, times that of ALC-0315 ([4]; 6 h): 9.27 times
- average radiation intensity, times that of HHMA ([4]; 6 h): 12.30 times
- average radiation intensity, times that of SM-102 ([4]; 6 h): 11.42 times
- expression of mRNA in mice, times that of YK-302 ([4]; 6 h): 549.37 times
- expression amount, times that of YK-309 ([4]; 6 h): 121.95 times
- expression amount, times that of YK-313 ([4]; 6 h): 18.11 times
- expression amount, times that of YK-321 ([4]; 6 h): 15.54 times
- average radiation intensity, times that of compound 21 ([4]; 6 h): 13.12 times
- average radiation intensity, times that of compound 23 ([4]; 6 h): 13.59 times
- average radiation intensity ([4]; 6 h after intramuscular injection): 8009850
- average radiation intensity, times that of ALC-0315 ([4]; 24 h): 11.96 times
- average radiation intensity, times that of HHMA ([4]; 24 h): 19.00 times
- average radiation intensity, times that of SM-102 ([4]; 24 h): 18.91 times
- expression of mRNA in mice, times that of YK-302 ([4]; 24 h): 575.97 times
- expression amount, times that of YK-309 ([4]; 24 h): 135.46 times
- expression amount, times that of YK-313 ([4]; 24 h): 21.82 times
- expression amount, times that of YK-321 ([4]; 24 h): 22.51 times
- average radiation intensity, times that of compound 21 ([4]; 24 h): 20.74 times
- average radiation intensity, times that of compound 23 ([4]; 24 h): 21.80 times
- average radiation intensity ([4]; 24 h after intramuscular injection): 2278520
- average radiation intensity, times that of ALC-0315 ([4]; 48 h): 20.43 times
- average radiation intensity, times that of HHMA ([4]; 48 h): 24.98 times
- average radiation intensity, times that of SM-102 ([4]; 48 h): 24.98 times
- expression of mRNA in mice, times that of YK-302 ([4]; 48 h): 793.37 times
- expression amount, times that of YK-309 ([4]; 48 h): 124.13 times
- expression amount, times that of YK-313 ([4]; 48 h): 31.82 times
- expression amount, times that of YK-321 ([4]; 48 h): 22.24 times
- average radiation intensity, times that of compound 21 ([4]; 48 h): 26.25 times
- average radiation intensity, times that of compound 23 ([4]; 48 h): 24.55 times
- average radiation intensity ([4]; 48 h after intramuscular injection): 813200
- average radiation intensity, times that of ALC-0315 ([4]; 7 d): 14.97 times
- average radiation intensity, times that of HHMA ([4]; 7 d): 17.97 times
- average radiation intensity, times that of SM-102 ([4]; 7 d): 15.93 times
- expression of mRNA in mice, times that of YK-302 ([4]; 7 d): 274.74 times
- expression amount, times that of YK-309 ([4]; 7 d): 84.00 times
- expression amount, times that of YK-313 ([4]; 7 d): 32.61 times
- expression amount, times that of YK-321 ([4]; 7 d): 16.02 times
- average radiation intensity, times that of compound 21 ([4]; 7 d): 16.37 times
- average radiation intensity, times that of compound 23 ([4]; 7 d): 16.91 times
- average radiation intensity ([4]; 7 d after intramuscular injection): 105500
